These results are taken from patent US11008572B2, “Methods and compositions for modulating splicing” (SKYHAWK THERAPEUTICS, INC., priority 2017, dated 2021).

Assay [1] relates to FOXM1^A2 mRNA and FOXM1^BC mRNA. Description: Splicing assay (FOXM1), qPCR of isoform mRNAs. Type of assay: cell-based. The essentials:
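Cells (20,000/well) treated at plating with compound, 8-point 4-fold series from 10 μM, 0.2% DMSO, 24 h at 37° C. Isoform mRNAs quantified by RT-qPCR against plasmid standards, normalized to PPIA and DMSO control; isoform ratio computed per concentration.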

The next assay relates to A-673 cells. Description: Cell viability, crystal violet staining. Type of assay: cell-based. The conditions noted are these: Homo sapiens. In outline:
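Readout is absorbance at 570 nm of crystal violet, taken up in 0.1 M sodium citrate in 50% ethanol after staining with 0.5% dye in 25% methanol. Plates held 5×10^3 cells per well, and compounds were added one day after seeding for 72 hours. Data are relative to vehicle, mean±SE.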

Setting [2] is: FoxM1 BC mRNA decrease (exon included), read-out: Splice IC50 (nM) FoxM1 BC mRNA decrease (exon included).
Where [3] appears, read: read-out: Splice EC50 (nM) FoxM1 A mRNA increase (exon excluded).
Setting [4] is: A673, cell viability, read-out: A-673 IC50 (nM) Cell viability.
Where [5] appears, read: 24 h, FoxM1 BC mRNA decrease (exon included), 0.1-1000 nM, 24 hours, read-out: Splice IC50 (nM), FoxM1 BC mRNA decrease (exon included).
[6] abbreviates: FoxM1 A mRNA increase (exon excluded), 0.1-1000 nM, 24 hours, read-out: Splice EC50 (nM), FoxM1 A mRNA increase (exon excluded).
Where [7] appears, read: A673, cell viability, read-out: A-673 IC50 (nM), Cell viability.

Read-outs that look alike come from different tables or passages of the source.

Turning to `Oc1cc(-c2cn[nH]c2)ccc1-c1ccc(O[C@@H]2C[C@H]3COC[C@@H](C2)N3)nn1` [compound 159, 2-(6-(((1R,5S,7r)-3-oxa-9-azabicyclo[3.3.1]nonan-7-yl)oxy)pyridazin-3-yl)-5-(1H-pyrazol-4-yl)phenol], the IC50 (in assay [1] (setting [2]); with A-673 cells (setting [4])) was 501 to 1000 nM in each case. In addition, in assay [1] (setting [3]), the EC50 fell in the range of 251 to 500 nM.

For the molecule `CN(c1ccc(-c2cc3oc(=O)n(C)c3cc2O)nn1)[C@@H]1C[C@H]2CC[C@@H](C1)N2` [compound 164, 6-(6-(((1R,3s,5S)-8-azabicyclo[3.2.1]octan-3-yl)(methyl)amino)pyridazin-3-yl)-5-hydroxy-3-methylbenzo[d]oxazol-2(3H)-one], the IC50 in assay [1] (setting [2]) lay within 10 to 100 nM; with A-673 cells (setting [4]), 251 to 500 nM. The EC50 in assay [1] (setting [3]) lay within 10 to 100 nM.

With `CN(c1ccc(-c2ccc(-c3cnn(C)c(=O)c3)cc2O)nn1)[C@H]1C[C@]2(C)CC[C@](C)(C1)N2` [compound 170, 5-(4-(6-(((1R,3s,5S)-1,5-dimethyl-8-azabicyclo[3.2.1]octan-3-yl)(methyl)amino)pyridazin-3-yl)-3-hydroxyphenyl)-2-methylpyridazin-3(2H)-one], the IC50 (in assay [1] (setting [2]); in the assay on A-673 cells (setting [4])) was less than 10 nM each time. In addition, in assay [1] (setting [3]), the EC50 is less than 10 nM.

Regarding `CN(c1ccc(-c2ccc(-c3ccn(C)c(=O)n3)cc2O)nn1)[C@H]1C[C@]2(C)CC[C@](C)(C1)N2` [compound 180, 4-(4-(6-(((1R,3s,5S)-1,5-dimethyl-8-azabicyclo[3.2.1]octan-3-yl)(methyl)amino)pyridazin-3-yl)-3-hydroxyphenyl)-1-methylpyrimidin-2(1H)-one], the IC50 lay within 10 to 100 nM in assay [1] (setting [2]) and 101 to 250 nM with A-673 cells (setting [4]). For the same molecule, in assay [1] (setting [3]), the EC50 was 10 to 100 nM.

Take `Cc1cc(-c2ccc(N(C)[C@H]3C[C@]4(C)CC[C@](C)(C3)N4)nn2)c(O)cc1-c1cn[nH]c1` [compound 182, 2-(6-(((1R,3s,5S)-1,5-dimethyl-8-azabicyclo[3.2.1]octan-3-yl)(methyl)amino)pyridazin-3-yl)-4-methyl-5-(1H-pyrazol-4-yl)phenol]: the IC50 is less than 10 nM in assay [1] (setting [2]) and 10 to 100 nM with A-673 cells (setting [4]). In assay [1] (setting [3]), the EC50 is less than 10 nM.

On to `CN(c1ccc(-c2ccc(-c3cnn(C(F)(F)F)c3)cc2O)nn1)[C@H]1C[C@]2(C)CC[C@](C)(C1)N2` [compound 186, 2-(6-(((1R,3s,5S)-1,5-dimethyl-8-azabicyclo[3.2.1]octan-3-yl)(methyl)amino)pyridazin-3-yl)-5-(1-(trifluoromethyl)-1H-pyrazol-4-yl)phenol], for which the IC50 was 101 to 250 nM in assay [1] (setting [2]) and greater than 1000 nM in the assay on A-673 cells (setting [4]). The EC50 in assay [1] (setting [3]) was in the range of 10 to 100 nM.

Take `CN(c1ccc(-c2ccc(-c3ccn(CF)c(=O)c3)cc2O)nn1)[C@H]1C[C@]2(C)CC[C@](C)(C1)N2` [compound 187, 4-(4-(6-(((1R,3s,5S)-1,5-dimethyl-8-azabicyclo[3.2.1]octan-3-yl)(methyl)amino)pyridazin-3-yl)-3-hydroxyphenyl)-1-(fluoromethyl)pyridin-2(1H)-one]: the figures for the IC50 (in assay [1] (setting [2]); in the assay on A-673 cells (setting [4])) were less than 10 nM and 10 to 100 nM, respectively. Besides, the EC50 in assay [1] (setting [3]) was less than 10 nM.

As for `CNC(=O)c1cc2cc(O)c(-c3ccc(N(C)[C@H]4C[C@]5(C)CC[C@](C)(C4)N5)nn3)cc2o1` [compound 188, 6-(6-(((1R,3s,5S)-1,5-dimethyl-8-azabicyclo[3.2.1]octan-3-yl)(methyl)amino)pyridazin-3-yl)-5-hydroxy-N-methylbenzofuran-2-carboxamide], the IC50 (in assay [1] (setting [2]); in the assay with A-673 cells (setting [4])) was 10 to 100 nM each time. Also, in assay [1] (setting [3]), the EC50 is less than 10 nM.

Turning to `COc1cc(-c2ccc(-c3ccc(N(C)[C@H]4C[C@]5(C)CC[C@](C)(C4)N5)nn3)c(O)c2)cnn1` [compound 191, 2-(6-(((1R,3s,5S)-1,5-dimethyl-8-azabicyclo[3.2.1]octan-3-yl)(methyl)amino)pyridazin-3-yl)-5-(6-methoxypyridazin-4-yl)phenol], the IC50 in assay [1] (Homo sapiens, A673, 24 h, A-673 cells, 24 hours, table does not say EC50 or IC50, read-out: FOXM1) was less than 1 nM; in assay [1] (Homo sapiens, A-375, 24 h, A-375 cells, 24 hours, table does not say EC50 or IC50, read-out: FOXM1), 1 to 10 nM; in assay [1] (Homo sapiens, K562, 24 h, K-562 cells, 24 hours, table does not say EC50 or IC50, read-out: FOXM1) it was 1 to 10 nM; in assay [1] (Homo sapiens, MDA-MB-468, 24 h, MDA-MB-468 cells, 24 hours, table does not say EC50 or IC50, read-out: FOXM1), 1 to 10 nM; in assay [1] (Homo sapiens, NCI-H358, 24 h, NCI-H358 cells, 24 hours, table does not say EC50 or IC50, read-out: FOXM1), 1 to 10 nM; in assay [1] (Homo sapiens, PANC-1, 24 h, PANC-1 cells, 24 hours, table does not say EC50 or IC50, read-out: FOXM1), 101 to 200 nM. Moreover, the IC50 was 11 to 100 nM in assay [1] (Homo sapiens, PC-3, 24 h, PC-3 cells, 24 hours, table does not say EC50 or IC50, read-out: FOXM1); 11 to 100 nM in assay [1] (Homo sapiens, U-87 MG, 24 h, U-87MG cells, 24 hours, table does not say EC50 or IC50, read-out: FOXM1); less than 10 nM with A-673 cells (setting [4]); less than 1 nM in the assay with A-673 cells (A673, read-out: A-673 cell viability (IC50)).

Regarding `CNC(=O)c1cc2cc(-c3ccc(N(C)[C@H]4C[C@]5(C)CC[C@](C)(C4)N5)nn3)c(O)cc2o1` [compound 192, 5-(6-(((1R,3s,5S)-1,5-dimethyl-8-azabicyclo[3.2.1]octan-3-yl)(methyl)amino)pyridazin-3-yl)-6-hydroxy-N-methylbenzofuran-2-carboxamide], the results for the IC50 (in assay [1] (setting [2]); in the assay with A-673 cells (setting [4])) were less than 10 nM and 10 to 100 nM, respectively. The EC50 in assay [1] (setting [3]) is less than 10 nM.

As for `Cc1nnc(-c2ccc(-c3ccc(N(C)[C@@H]4C[C@H]5CC[C@@H](C4)N5)nn3)c(O)c2)o1` [compound 219, 2-(6-(((1R,3s,5S)-8-azabicyclo[3.2.1]octan-3-yl)(methyl)amino)pyridazin-3-yl)-5-(5-methyl-1,3,4-oxadiazol-2-yl)phenol], the IC50 in assay [1] (setting [5]) is 10 to 100 nM; in the assay on A-673 cells (setting [7]) it was greater than 1000 nM. Moreover, the EC50 in assay [1] (setting [6]) fell in the range of 10 to 100 nM.

As for `CN(c1ccc(-c2ccc(-n3cccn3)cc2O)nn1)[C@@H]1C[C@H]2CC[C@@H](C1)N2` [compound 220, 2-(6-(((1R,3s,5S)-8-azabicyclo[3.2.1]octan-3-yl)(methyl)amino)pyridazin-3-yl)-5-(1H-pyrazol-1-yl)phenol], the IC50 (in assay [1] (setting [5]); in the assay on A-673 cells (setting [7])) was 10 to 100 nM in each case. For the same molecule, in assay [1] (setting [6]), the EC50 was less than 10 nM.

Take `Cc1cnn(-c2ccc(-c3ccc(N(C)[C@@H]4C[C@H]5CC[C@@H](C4)N5)nn3)c(O)c2)c1` [compound 221, 2-(6-(((1R,3s,5S)-8-azabicyclo[3.2.1]octan-3-yl)(methyl)amino)pyridazin-3-yl)-5-(4-methyl-1H-pyrazol-1-yl)phenol]: the results for the IC50 (in assay [1] (setting [5]); in the assay on A-673 cells (setting [7])) were 10 to 100 nM and 101 to 250 nM, respectively. The EC50 in assay [1] (setting [6]) lay in the range of 10 to 100 nM.

With `Cc1ccn(-c2ccc(-c3ccc(N(C)[C@@H]4C[C@H]5CC[C@@H](C4)N5)nn3)c(O)c2)n1` [compound 222, 2-(6-(((1R,3s,5S)-8-azabicyclo[3.2.1]octan-3-yl)(methyl)amino)pyridazin-3-yl)-5-(3-methyl-1H-pyrazol-1-yl)phenol], the IC50 (in assay [1] (setting [5]); with A-673 cells (setting [7])) was 10 to 100 nM each time. The EC50 in assay [1] (setting [6]) is less than 10 nM.

Turning to `CN(c1ccc(-c2ccc(-n3ccnn3)cc2O)nn1)[C@@H]1C[C@H]2CC[C@@H](C1)N2` [compound 224, 2-(6-(((1R,3s,5S)-8-azabicyclo[3.2.1]octan-3-yl)(methyl)amino)pyridazin-3-yl)-5-(1H-1,2,3-triazol-1-yl)phenol], the IC50 in assay [1] (setting [5]) was in the range of 10 to 100 nM; with A-673 cells (setting [7]) it was 101 to 250 nM. For the same molecule, in assay [1] (setting [6]), the EC50 is less than 10 nM.

As to `Cc1cn(-c2ccc(-c3ccc(N(C)[C@@H]4C[C@H]5CC[C@@H](C4)N5)nn3)c(O)c2)nn1` [compound 225, 2-(6-(((1R,3s,5S)-8-azabicyclo[3.2.1]octan-3-yl)(methyl)amino)pyridazin-3-yl)-5-(4-methyl-1H-1,2,3-triazol-1-yl)phenol], the IC50 (in assay [1] (setting [5]); in the assay on A-673 cells (setting [7])) was 10 to 100 nM each time. For the same molecule, in assay [1] (setting [6]), the EC50 fell in the range of 10 to 100 nM.

Consider `CN(c1ccc(-c2ccc(-c3c[nH]nn3)cc2O)nn1)[C@@H]1C[C@H]2CC[C@@H](C1)N2` [compound 226, 2-(6-(((1R,3s,5S)-8-azabicyclo[3.2.1]octan-3-yl)(methyl)amino)pyridazin-3-yl)-5-(1H-1,2,3-triazol-4-yl)phenol], for which the figures for the IC50 (in assay [1] (setting [5]); with A-673 cells (setting [7])) were 10 to 100 nM and 101 to 250 nM, respectively. The EC50 in assay [1] (setting [6]) was in the range of 10 to 100 nM.

Consider `CN(c1ccc(-c2ccc(-c3nnn[nH]3)cc2O)nn1)[C@@H]1C[C@H]2CC[C@@H](C1)N2` [compound 227, 2-(6-(((1R,3s,5S)-8-azabicyclo[3.2.1]octan-3-yl)(methyl)amino)pyridazin-3-yl)-5-(1H-tetrazol-5-yl)phenol], for which the IC50 (in assay [1] (setting [5]); with A-673 cells (setting [7])) was greater than 1000 nM in each case. Besides, in assay [1] (setting [6]), the EC50 is greater than 1000 nM.

Regarding `Cc1cc(-c2ccc(-c3ccc(N(C)[C@@H]4C[C@H]5CC[C@@H](C4)N5)nn3)c(O)c2)on1` [compound 229, 2-(6-(((1R,3s,5S)-8-azabicyclo[3.2.1]octan-3-yl)(methyl)amino)pyridazin-3-yl)-5-(3-methylisoxazol-5-yl)phenol], the IC50 (in assay [1] (setting [5]); with A-673 cells (setting [7])) was greater than 1000 nM each time. For the same molecule, the EC50 in assay [1] (setting [6]) is greater than 1000 nM.
